Values quoted from earlier work, collected in patent publication US10863739B2 (AgroFresh Inc., priority 2015, dated 2020).

Details: gas

Compound: CC1=CC1 [1-MCP, 1-Methylcyclopropene]
- flammable above a concentration: > 13,300 ppm
